Measurements reported in ChEMBL document CHEMBL4229385, “Study of the structure-activity relationship of polymyxin analogues” (2018).
In brackets after ≈: the same amount, converted by molar mass. Where a SMILES comes first, the peptide text is derived from it. Bridges are numbered along the chain shown (N, C = ends). [ ]: non-standard residue; d: D form. The star is where a group is joined. Benzoyl(4-Ph) = O=C(c1ccc(-c2ccccc2)cc1)*; Bip = N[C@@H](Cc1ccc(-c2ccccc2)cc1)C(=O)O; Octanoyl = CCCCCCCC(=O)*; Dab = NCC[C@H](N)C(=O)O

Key:
Assay type in all cases: functional
[1] = system: Pseudomonas aeruginosa; assay: Antibacterial activity against multidrug-resistant Pseudomonas aeruginosa KUB2705 by agar dilution method
[2] = system: Pseudomonas aeruginosa; assay: Antibacterial activity against amikacin/ciprofloxacin-resistant Pseudomonas aeruginosa KUB2704 by agar dilution method
[3] = system: Pseudomonas aeruginosa; assay: Antibacterial activity against amikacin/imipenem-resistant Pseudomonas aeruginosa KUB2703 by agar dilution method
[4] = system: Pseudomonas aeruginosa; assay: Antibacterial activity against Pseudomonas aeruginosa E-2 by agar dilution method
[5] = system: Pseudomonas aeruginosa; assay: Antibacterial activity against Pseudomonas aeruginosa PAO1 by agar dilution method

C[C@@H](O)[C@@H]1NC(=O)[C@H](CCN)NC(=O)[C@H](CCN)NC(=O)[C@H](Cc2ccccc2)NC(=O)[C@@H](Cc2ccc(-c3ccccc3)cc2)NC(=O)[C@H](CCN)NC(=O)[C@@H](NC(=O)[C@H](CCN)NC(=O)[C@@H](NC(=O)[C@H](CCN)NC(=O)c2ccc(-c3ccccc3)cc2)[C@@H](C)O)CCNC1=O
MIC [1]: 16 µg/mL (≈ 11.8 µM)
MIC [2]: 16 µg/mL (≈ 11.8 µM)
MIC [3]: 16 µg/mL (≈ 11.8 µM)
MIC [4]: 16 µg/mL (≈ 11.8 µM)
MIC [5]: 16 µg/mL (≈ 11.8 µM)

C[C@@H](O)[C@@H]1NC(=O)[C@H](CCN)NC(=O)[C@H](CCN)NC(=O)[C@H](Cc2ccc(-c3ccccc3)cc2)NC(=O)[C@@H](Cc2ccccc2)NC(=O)[C@H](CCN)NC(=O)[C@@H](NC(=O)[C@H](CCN)NC(=O)[C@@H](NC(=O)[C@H](CCN)NC(=O)c2ccc(-c3ccccc3)cc2)[C@@H](C)O)CCNC1=O ({Benzoyl(4-Ph)}-[Dab]T[Dab][Dab][Dab][dF][Bip][Dab][Dab]T; lactam 4-C)
MIC [1]: 16 µg/mL (≈ 11.8 µM)
MIC [2]: 16 µg/mL (≈ 11.8 µM)
MIC [3]: 16 µg/mL (≈ 11.8 µM)
MIC [4]: 16 µg/mL (≈ 11.8 µM)
MIC [5]: 16 µg/mL (≈ 11.8 µM)

CCCCC/C=C\C/C=C\CCCCCCCC(=O)N[C@@H](CCN)C(=O)N[C@H](C(=O)N[C@@H](CCN)C(=O)N[C@H]1CCNC(=O)[C@H]([C@@H](C)O)NC(=O)[C@H](CCN)NC(=O)[C@H](CCN)NC(=O)[C@H](CC(C)C)NC(=O)[C@@H](CC(C)C)NC(=O)[C@H](CCN)NC1=O)[C@@H](C)O
MIC [1]: > 16 µg/mL
MIC [2]: > 16 µg/mL
MIC [3]: > 16 µg/mL
MIC [4]: 16 µg/mL (≈ 12.4 µM)
MIC [5]: > 16 µg/mL

C[C@@H](O)[C@@H]1NC(=O)[C@H](CCN)NC(=O)[C@H](CCN)NC(=O)[C@H](Cc2ccccc2)NC(=O)[C@@H](Cc2ccccc2)NC(=O)[C@H](CCN)NC(=O)[C@@H](NC(=O)[C@H](CCN)NC(=O)[C@@H](NC(=O)[C@H](CCN)NC(=O)c2cccc(-c3ccccc3)c2)[C@@H](C)O)CCNC1=O
MIC [1]: 4 µg/mL (≈ 3.13 µM)
MIC [2]: 8 µg/mL (≈ 6.26 µM)
MIC [3]: 8 µg/mL (≈ 6.26 µM)
MIC [4]: 8 µg/mL (≈ 6.26 µM)
MIC [5]: 8 µg/mL (≈ 6.26 µM)

CCCCCCCC(=O)N[C@@H](CCN)C(=O)N[C@H](C(=O)N[C@@H](CCN)C(=O)N[C@H]1CCNC(=O)[C@H]([C@@H](C)O)NC(=O)[C@H](CCN)NC(=O)[C@H](CCN)NC(=O)[C@H](CC(C)C)NC(=O)[C@@H](CC(C)C)NC(=O)[C@H](CCN(C)C)NC1=O)[C@@H](C)O
MIC [1]: 8 µg/mL (≈ 6.76 µM)
MIC [2]: > 16 µg/mL
MIC [3]: > 16 µg/mL
MIC [4]: > 16 µg/mL
MIC [5]: > 16 µg/mL

C[C@@H](O)[C@@H]1NC(=O)[C@H](CCN)NC(=O)[C@H](CCN)NC(=O)[C@H](Cc2ccccc2)NC(=O)[C@@H](Cc2ccccc2)NC(=O)[C@H](CCN)NC(=O)[C@@H](NC(=O)[C@H](CCN)NC(=O)[C@@H](NC(=O)[C@H](CCN)NC(=O)c2ccc(-c3ccccc3)cc2)[C@@H](C)O)CCNC1=O
MIC [1]: 8 µg/mL (≈ 6.26 µM)
MIC [2]: 8 µg/mL (≈ 6.26 µM)
MIC [3]: 8 µg/mL (≈ 6.26 µM)
MIC [4]: 8 µg/mL (≈ 6.26 µM)
MIC [5]: 4 µg/mL (≈ 3.13 µM)

CCCCCCCC(=O)N[C@@H](CCN)C(=O)N[C@H](C(=O)N[C@@H](CCN)C(=O)N[C@H]1CCNC(=O)[C@H]([C@@H](C)O)NC(=O)[C@H](CCN(C)C)NC(=O)[C@H](CCN)NC(=O)[C@H](CC(C)C)NC(=O)[C@@H](CC(C)C)NC(=O)[C@H](CCN)NC1=O)[C@@H](C)O
MIC [1]: 16 µg/mL (≈ 13.5 µM)
MIC [2]: > 16 µg/mL
MIC [3]: > 16 µg/mL
MIC [4]: > 16 µg/mL
MIC [5]: > 16 µg/mL

CCCCCCCC(=O)N[C@@H](CCN)C(=O)N[C@H](C(=O)N[C@@H](CCN(C)C)C(=O)N[C@H]1CCNC(=O)[C@H]([C@@H](C)O)NC(=O)[C@H](CCN)NC(=O)[C@H](CCN)NC(=O)[C@H](CC(C)C)NC(=O)[C@@H](CC(C)C)NC(=O)[C@H](CCN)NC1=O)[C@@H](C)O
MIC [1]: 4 µg/mL (≈ 3.38 µM)
MIC [2]: 4 µg/mL (≈ 3.38 µM)
MIC [3]: 4 µg/mL (≈ 3.38 µM)
MIC [4]: 2 µg/mL (≈ 1.69 µM)
MIC [5]: 4 µg/mL (≈ 3.38 µM)

CCCCCCCCC(CCCCCCCC)C(=O)N[C@@H](CCN)C(=O)N[C@H](C(=O)N[C@@H](CCN)C(=O)N[C@H]1CCNC(=O)[C@H]([C@@H](C)O)NC(=O)[C@H](CCN)NC(=O)[C@H](CCN)NC(=O)[C@H](CC(C)C)NC(=O)[C@@H](CC(C)C)NC(=O)[C@H](CCN)NC1=O)[C@@H](C)O
MIC [1]: > 16 µg/mL
MIC [2]: > 16 µg/mL
MIC [3]: > 16 µg/mL
MIC [4]: > 16 µg/mL
MIC [5]: > 16 µg/mL

C[C@@H](O)[C@@H]1NC(=O)[C@H](CCN)NC(=O)[C@H](CCN)NC(=O)[C@H](Cc2ccccc2)NC(=O)[C@@H](Cc2ccccc2)NC(=O)[C@H](CCN)NC(=O)[C@@H](NC(=O)[C@H](CCN)NC(=O)[C@@H](NC(=O)[C@H](CCN)NC(=O)c2ccccc2)[C@@H](C)O)CCNC1=O
MIC [1]: 2 µg/mL (≈ 1.66 µM)
MIC [2]: 2 µg/mL (≈ 1.66 µM)
MIC [3]: 4 µg/mL (≈ 3.33 µM)
MIC [4]: 2 µg/mL (≈ 1.66 µM)
MIC [5]: 16 µg/mL (≈ 13.3 µM)

CCCCCCCC(=O)N[C@@H](CCN(C)C)C(=O)N[C@H](C(=O)N[C@@H](CCN)C(=O)N[C@H]1CCNC(=O)[C@H]([C@@H](C)O)NC(=O)[C@H](CCN)NC(=O)[C@H](CCN)NC(=O)[C@H](CC(C)C)NC(=O)[C@@H](CC(C)C)NC(=O)[C@H](CCN)NC1=O)[C@@H](C)O
MIC [1]: 4 µg/mL (≈ 3.38 µM)
MIC [2]: 8 µg/mL (≈ 6.76 µM)
MIC [3]: > 16 µg/mL
MIC [4]: 4 µg/mL (≈ 3.38 µM)
MIC [5]: 8 µg/mL (≈ 6.76 µM)

CCCCCCCC(=O)N[C@@H](CCN)C(=O)N[C@H](C(=O)N[C@@H](CCN)C(=O)N[C@H]1CCNC(=O)[C@H]([C@@H](C)O)NC(=O)[C@H](CCN)NC(=O)[C@H](CCN)NC(=O)[C@H](CC(C)C)NC(=O)[C@@H](CC(C)C)NC(=O)[C@H](CCN)NC1=O)[C@@H](C)O (Octanoyl-[Dab]T[Dab][Dab][Dab][dL]L[Dab][Dab]T; lactam 4-C)
MIC [1]: 4 µg/mL (≈ 3.46 µM)
MIC [2]: 8 µg/mL (≈ 6.92 µM)
MIC [3]: 16 µg/mL (≈ 13.8 µM)
MIC [4]: 4 µg/mL (≈ 3.46 µM)
MIC [5]: 8 µg/mL (≈ 6.92 µM)

COLISTIN
MIC [1]: 4 µg/mL
MIC [2]: 4 µg/mL
MIC [3]: 2 µg/mL
MIC [4]: 2 µg/mL
MIC [5]: 4 µg/mL

C[C@@H](O)[C@@H]1NC(=O)[C@H](CCN)NC(=O)[C@H](CCN)NC(=O)[C@H](Cc2ccccc2)NC(=O)[C@@H](Cc2ccc(-c3ccccc3)cc2)NC(=O)[C@H](CCN)NC(=O)[C@@H](NC(=O)[C@H](CCN)NC(=O)[C@@H](NC(=O)[C@H](CCN)NC(=O)c2ccccc2)[C@@H](C)O)CCNC1=O
MIC [1]: 8 µg/mL (≈ 6.26 µM)
MIC [2]: 8 µg/mL (≈ 6.26 µM)
MIC [3]: 8 µg/mL (≈ 6.26 µM)
MIC [4]: 8 µg/mL (≈ 6.26 µM)
MIC [5]: 4 µg/mL (≈ 3.13 µM)

C[C@@H](O)[C@@H]1NC(=O)[C@H](CCN)NC(=O)[C@H](CCN)NC(=O)[C@H](Cc2ccccc2)NC(=O)[C@@H](Cc2ccc(-c3ccccc3)cc2)NC(=O)[C@H](CCN)NC(=O)[C@@H](NC(=O)[C@H](CCN)NC(=O)[C@@H](NC(=O)[C@H](CCN)NC(=O)c2cccc(-c3ccccc3)c2)[C@@H](C)O)CCNC1=O
MIC [1]: 16 µg/mL (≈ 11.8 µM)
MIC [2]: 16 µg/mL (≈ 11.8 µM)
MIC [3]: 16 µg/mL (≈ 11.8 µM)
MIC [4]: > 16 µg/mL
MIC [5]: 16 µg/mL (≈ 11.8 µM)

CCCCCCCCC(CCCCCC)C(=O)N[C@@H](CCN)C(=O)N[C@H](C(=O)N[C@@H](CCN)C(=O)N[C@H]1CCNC(=O)[C@H]([C@@H](C)O)NC(=O)[C@H](CCN)NC(=O)[C@H](CCN)NC(=O)[C@H](CC(C)C)NC(=O)[C@@H](CC(C)C)NC(=O)[C@H](CCN)NC1=O)[C@@H](C)O (stereo not given in full)
MIC [1]: > 16 µg/mL
MIC [2]: > 16 µg/mL
MIC [3]: 16 µg/mL (≈ 12.6 µM)
MIC [4]: 16 µg/mL (≈ 12.6 µM)
MIC [5]: > 16 µg/mL

C[C@@H](O)[C@@H]1NC(=O)[C@H](CCN)NC(=O)[C@H](CCN)NC(=O)[C@H](Cc2ccc(-c3ccccc3)cc2)NC(=O)[C@@H](Cc2ccccc2)NC(=O)[C@H](CCN)NC(=O)[C@@H](NC(=O)[C@H](CCN)NC(=O)[C@@H](NC(=O)[C@H](CCN)NC(=O)c2ccccc2)[C@@H](C)O)CCNC1=O
MIC [1]: 8 µg/mL (≈ 6.26 µM)
MIC [2]: 8 µg/mL (≈ 6.26 µM)
MIC [3]: 8 µg/mL (≈ 6.26 µM)
MIC [4]: 16 µg/mL (≈ 12.5 µM)
MIC [5]: 8 µg/mL (≈ 6.26 µM)

C[C@@H](O)[C@@H]1NC(=O)[C@H](CCN)NC(=O)[C@H](CCN)NC(=O)[C@H](Cc2ccc(-c3ccccc3)cc2)NC(=O)[C@@H](Cc2ccccc2)NC(=O)[C@H](CCN)NC(=O)[C@@H](NC(=O)[C@H](CCN)NC(=O)[C@@H](NC(=O)[C@H](CCN)NC(=O)c2cccc(-c3ccccc3)c2)[C@@H](C)O)CCNC1=O
MIC [1]: 16 µg/mL (≈ 11.8 µM)
MIC [2]: > 16 µg/mL
MIC [3]: > 16 µg/mL
MIC [4]: > 16 µg/mL
MIC [5]: 16 µg/mL (≈ 11.8 µM)

CCCCCCCC(=O)N[C@@H](CCN)C(=O)N[C@H](C(=O)N[C@@H](CCN)C(=O)N[C@H]1CCNC(=O)[C@H]([C@@H](C)O)NC(=O)[C@H](CCN)NC(=O)[C@H](CCN(C)C)NC(=O)[C@H](CC(C)C)NC(=O)[C@@H](CC(C)C)NC(=O)[C@H](CCN)NC1=O)[C@@H](C)O
MIC [1]: 4 µg/mL (≈ 3.38 µM)
MIC [2]: 4 µg/mL (≈ 3.38 µM)
MIC [3]: 4 µg/mL (≈ 3.38 µM)
MIC [4]: 2 µg/mL (≈ 1.69 µM)
MIC [5]: 4 µg/mL (≈ 3.38 µM)
